As usually defined, the IC50 is the point on the concentration scale where inhibition reaches its midpoint. As usually defined, the viability is a read-out of living cells in per cent, often relative to untreated cells.

Series [1] relates to PARG. The settings on record: cited from earlier work.
Series [2] has as its system PC3 cells. Briefly: Sulforhodamine B (SRB) cytotoxicity assay. The settings on record: Homo sapiens, PC-3, 72 h, without IR. A general note: In SRB staining, fixed cells bind dye roughly in proportion to their protein.
Series [3] in a line: Sulforhodamine B (SRB) cytotoxicity assay. The conditions noted are these: human, PC3 cells, Viability; for viability at 72 h, 1.95 µM: log [concentration] μM 0.290702; for viability at 72 h, 3.91 µM: log [concentration] μM 0.591732; for viability at 72 h, 7.81 µM: log [concentration] μM 0.892818; for viability at 72 h, 15.63 µM: log [concentration] μM 1.19382; for viability at 72 h, 31.25 µM: log [concentration] μM 1.49485; for viability at 72 h, 62.5 µM: log [concentration] μM 1.79588; for viability at 72 h, 125 µM: log [concentration] μM 2.09691; for viability at 72 h, 250 µM: log [concentration] μM 2.39794; for viability at 72 h, 500 µM: log [concentration] μM 2.69897; for viability at 72 h, 1000 µM: log [concentration] μM 3; for viability at 72 h, 2000 µM: log [concentration] μM 3.30103.

Series [4] deals with MRC-5 cells. Kind of series: Sulforhodamine B (SRB) cytotoxicity assay. The conditions noted are these: Homo sapiens, MRC5, 72 h. In kind it is cell-based, human. On the procedure:
(§1) Fig. 6 Selective inhibition of PARG by xanthine derivative JA2131. a Clonogenic survival assays of PC3, MDA-MB-231, and MCF-7 cells treated with PARGi. Cells were treated with either DMSO or 10 µM JA2131 for 2 h, irradiated with 3 Gy (MDA-MB-231 and MCF-7), 7 Gy (PC3) IR and grown for ~2 weeks, then colonies were fixed with methanol and stained with crystal violet. The results of three independent experiments are shown. Error bars = the standard error of the mean (SEM). b dose-response of JA2131 in MDA-MB-231 cells with and without IR. Cells were treated with designated concentrations of JA2131 for 2 h and then either left untreated or exposed to 3 Gy IR and allowed to recover for 1 h before lysis. Total protein was immunoblotted with anti-PAR antibody (upper panel), stripped and reprobed with anti-PCNA as a loading control. c MDA-MB-231 cells with stable scrambled shRNA (WT) or stable PARG shRNA, knockdown (KD), were treated with 5 μM JA2131 for 2 h, lysed and then total lysates were immunoblotted for anti-PAR (upper panel) followed by anti-PARG (upper middle panel), anti-PARP1 (lower middle panel) and anti-actin (bottom panel) antibody. […] Stable cells with scramble shRNA (control) and shPARG (PARG-KD) cells were treated with an increasing concentration of JA2131 for growth inhibitory IC50 determination. The data was normalized against 100% survival at the lowest inhibitor concentration. Error bars show the percent coefficient of variation. Equivalent concentrations of DMSO were used as a negative control. e The cytotoxicity of JA2131 along with PDD, Veliparib and Doxorubicin against MRC-5 cells. Error bars show the percent coefficient of variation. f CETSA for in-cell JA2131 target engagement. Normalized anti-PARG western blot intensities of three independent experiments were fitted as above and the estimated aggregation temperature (Tagg) is shown in the tabulated insert. Source Data are provided as a Source Data file.

The nature of series [5]: Sulforhodamine B (SRB) cytotoxicity assay. The settings on record: human, MRC-5 cells. It is filed as cell-based, human. On the procedure: as §1
The test system of series [6] is PC3 cells. Kind of series: Clonogenic survival assay. It is filed as cell-based, human. The settings on record: PC3. On the procedure: as §1
(§2) PC3, MDA-MB-231 cells were maintained in RPMI 1640, MCF-7 cells in Eagle’s Minimum Essential Medium (EMEM), MRC-5 cells in Eagle’s Minimum Essential Medium and Hela and U2OS cells in Dulbecco’s modified Eagle’s high glucose medium (DMEM) supplemented with 10% (vol/vol) fetal bovine serum (FBS) and 1% antibiotic/antimycotic (Lonza) in a humidified incubator with 10% CO2. All cell lines were purchased from ATCC and regularly checked for mycoplasma and cell authentication. SUM 149PT cells were cultured in F-12 Hams (Gibco) supplemented with 5% fetal bovine serum, insulin, and hydrocortisone. Colony formation assays were carried out in 6-well plates, 500 cells were used per well and following designated treatment, and colonies were grown for 2 weeks. Cells were fixed with methanol (100%), stained with crystal violet and analyzed using a GelCount instrument (Oxford Optronix Ltd). Crystal Violet C6158 was purchased from Sigma. PARG knockdown cells were generated by infecting MDA-MB-231 cells with shPARG lentiviral particles (sc-106355-V, Santa Cruz Biotechnology), which contain a pool of three shRNA plasmids. After 24 h infection, 3 µg/ml puromycin (Invitrogen) was added and antibiotic-resistant cells were further expanded and used for experimentation. Sequence-1; hairpin sequence: […], sense: […]tt, Antisense: […]tt. Sequence-2; hairpin sequence, […]-[…], sense: […]tt, antisense: […]tt. Sequence-3; hairpin sequence: […]-[…], sense: […]tt, antisense: […]-GGUUUCCtt. Control cells were generated using the same process except that scramble lentiviral particles with scrambled sequences were used (sc-108080).
(§3) Supplementary Fig. 8: Clonogenic survival of cells in the presence of PARGi and PARPi (a)
(§4) Clonogenic survival of PC3 cells in response to indicated compounds. ( b) Clonogenic survival of
(§5) MDA-MB-231 cells in response to i ndicated compounds. (c) Clonogenic survival of MCF -7 cells
(§6) in response to indicated compounds. […]

Series [7] relates to MCF-7 cells. Briefly: Clonogenic survival assay. In kind it is cell-based, human. On the procedure: as §1, §2, §3, §4, §5, §6
Series [8] has as its system MDA-MB-231 cells. Briefly: Clonogenic survival assay. In kind it is cell-based, human. The settings on record: MDA-MB-231. The protocol:
as §1, §2, §3, §4, §5, §6

Where “and” joins values, the source holds several entries; their conditions need not be identical. Identical values can stand only once. Like-named read-outs stand apart in the source and are kept apart here. Some results are limits rather than exact numbers.

Take `Nc1ncnc2c1ncn2[C@@H]1O[C@H](CO[P@](=O)(O)O[P@@](=O)(O)OC[C@H]2NC[C@H](O)[C@@H]2O)[C@@H](O)[C@H]1O` [ADP-HPD, adenosine diphosphate (hydroxymethyl)pyrrolidinediol, reference compound]: the IC50 in series [1] (read-out: IC50, published values) was 100 to 1400 nM.

On to `COc1cccc2c1C(=O)c1c(O)c3c(c(O)c1C2=O)C[C@@](O)(C(=O)CO)C[C@@H]3O[C@H]1C[C@H](N)[C@H](O)[C@H](C)O1` [Doxorubicin], for which the IC50 was 810 ± 300 nM in series [2] and 741 ± 100 nM in series [4]. Besides, the viability at 72 h, 1.56 µM in series [3] (without IR, log [concentration] μM 0.194) came to 17.2%. The viability at 72 h, 3.13 µM in series [3] (without IR, log [concentration] μM 0.495) worked out at 11.1%. The viability at 72 h, 6.25 µM in series [3] (without IR, log [concentration] μM 0.796) amounted to 10.1%. For the same compound, the viability at 72 h, 12.5 µM in series [3] (without IR, log [concentration] μM 1.097) amounted to 9.95%. Besides, the viability at 72 h, 25 µM in series [3] (without IR, log [concentration] μM 1.398) came out at 9.74%. For the same compound, in series [3] (without IR, log [concentration] μM 1.699), the viability at 72 h, 50 µM amounted to 9.95%. The viability at 72 h, 100 µM in series [3] (without IR, log [concentration] μM 2) is 10.6%. Also, the viability at 72 h, 200 µM in series [3] (without IR, log [concentration] μM 2.301) was 13.8%. Moreover, in series [3] (without IR, log [concentration] μM -0.107), the viability at 72 h, 0.78 µM was determined as 58.5%. The viability at 72 h, 0.39 µM in series [3] (without IR, log [concentration] μM -0.408) is 95%. The viability at 72 h, 0.098 µM in series [3] (without IR, log [concentration] μM -1.009) was found to be 100%. Besides, in series [5] (log [concentration] μM 0.19), the viability at 72 h, 1.55 µM was determined as 50.4%. In addition, the viability at 72 h, 3.09 µM in series [5] (log [concentration] μM 0.49) came out at 47.4%. Moreover, the viability at 72 h, 6.31 µM in series [5] (log [concentration] μM 0.8) came to 50%. Further, the viability at 72 h, 12.6 µM in series [5] (log [concentration] μM 1.1) is 50%. For the same compound, the viability at 72 h, 25.1 µM in series [5] (log [concentration] μM 1.4) is 45.6%. In series [5] (log [concentration] μM -0.11), the viability at 72 h, 0.776 µM came out at 71.7%. For the same compound, in series [5] (log [concentration] μM -0.41), the viability at 72 h, 0.389 µM is 96.5%. Further, the viability at 72 h, 0.195 µM in series [5] (log [concentration] μM -0.71) turned out to be 100%.

Consider `O=C(OC[C@H]1O[C@@H](OC(=O)c2cc(O)c(O)c(OC(=O)c3cc(O)c(O)c(O)c3)c2)[C@H](OC(=O)c2cc(O)c(O)c(OC(=O)c3cc(O)c(O)c(O)c3)c2)[C@@H](OC(=O)c2cc(O)c(O)c(OC(=O)c3cc(O)c(O)c(O)c3)c2)[C@@H]1OC(=O)c1cc(O)c(O)c(OC(=O)c2cc(O)c(O)c(O)c2)c1)c1cc(O)c(O)c(OC(=O)c2cc(O)c(O)c(O)c2)c1` [Gallotannin], for which the IC50 in series [1] (read-out: IC50) was below 5000 nM.

As to `O=C(c1cc(Cc2n[nH]c(=O)c3ccccc23)ccc1F)N1CCN(C(=O)C2CC2)CC1` [Olaparib, reference compound], the “colony count (clonogenic survival, raw replicate data, Supplementary Figure 8)” value (“colony count” for short) in series [6] (Experiment-1, replicates 1-6) is 5 and 10 and 21 and 13 and 39 and 16. For the same compound, in series [6] (Experiment-2, replicates 1-6), the “colony count” value was 6 (3×) and 1 and 0 and 11. Further, the “colony count” value in series [6] (Experiment-3, replicates 1-6) was 0 (2×) and 3 (3×) and 1. Besides, the “colony count” value in series [7] (Experiment-1, replicates 1-6) is 14 and 16 and 15 and 5 and 13 and 26. Further, the “colony count” value in series [7] (Experiment-2, replicates 1-6) was 25 and 5 (2×) and 4 and 1 and 2. In addition, the “colony count” value in series [7] (Experiment-3, replicates 1-6) was 18 (2×) and 15 and 17 and 16 and 5. Also, the “colony count” value in series [8] (Experiment-1, replicates 1-6) was 0 and 1 (2×) and 2 (2×) and 3. The “colony count” value in series [8] (Experiment-2, replicates 1-6) is 1 (3×) and 2 (2×) and 3. Further, the “colony count” value in series [8] (Experiment-3, replicates 1-6) was 2 and 1 (3×) and 4 and 3. Also, in series [3] (+IR 7.0 Gy), the viability at 72 h, 1.95 µM amounted to 100%; the viability at 72 h, 3.91 µM amounted to 101%; the viability at 72 h, 7.81 µM turned out to be 101%; the viability at 72 h, 15.63 µM was determined as 99.1%. For the same compound, in series [3] (+IR 7.0 Gy), the viability at 72 h, 31.25 µM was found to be 79.9%; the viability at 72 h, 62.5 µM is 52.4%; the viability at 72 h, 125 µM amounted to 32.6%; the viability at 72 h, 250 µM was 16.5%. In series [3] (+IR 7.0 Gy), the viability at 72 h, 500 µM came out at 11.1%; the viability at 72 h, 1000 µM was 11.4%; the viability at 72 h, 2000 µM was 10.8%. Further, in series [3] (-IR), the viability at 72 h, 1.95 µM is 100%; the viability at 72 h, 3.91 µM is 102%; the viability at 72 h, 7.81 µM came out at 94.4%; the viability at 72 h, 15.63 µM amounted to 77.7%. In addition, in series [3] (-IR), the viability at 72 h, 31.25 µM came out at 53.3%; the viability at 72 h, 62.5 µM was 34.7%; the viability at 72 h, 125 µM worked out at 20.2%; the viability at 72 h, 250 µM is 9.43%. In addition, in series [3] (-IR), the viability at 72 h, 500 µM was 5.75%; the viability at 72 h, 1000 µM turned out to be 6.34%; the viability at 72 h, 2000 µM was 6.26%.

The values are drawn from PMC6906431, “Selective small molecule PARG inhibitor causes replication fork stalling and cancer cell death” (Nature Communications, 2019).
